Experimental data from patent publication US12227782B2, “Method for producing protein” (priority 2018, dated 2025).

Tested on: Trichoderma reesei X3AB1 strain
Assay: Test 1/Test 2: amount of protein produced (Bradford method) in culture supernatant
Assay type: cell-based
Description: Trichoderma reesei X3AB1 strain (J. Ind. Microbiol. Biotechnol., 2012, 174: 1-9; hereinafter, referred to as X3AB1 strain) was cultured in a cellulose-containing culture medium to produce a protein containing a cellulase. As preculture, 50 mL of a culture medium was added to a 500 mL flask, spores of X3AB1 strain were inoculated at 1×10^5 cells/mL, and shaking culture was performed at 220 rpm (PRXYg-98R from PRECI CO., LTD.) at 28° C. The culture medium composition was as follows: 1% glucose, 0.14% (NH4)2SO4, 0.2% KH2PO4, 0.03% CaCl2·2H2O, 0.03% MgSO4·7H2O, 0.1% Bacto Peptone (BD Difco), 0.05% Bacto Yeast extract (BD Difco), 0.1% TWEEN® 80 (polysorbate 80), 0.1% Trace element and 50 mM tartrate buffer (pH 4.0). The composition of the Trace element was as follows: 6 mg of H3BO3, 26 mg of (NH4)6Mo7O24·4H2O, 100 mg of FeCl3·6H2O, 40 mg of CuSO4·5H2O, 8 mg of MnCl2·4H2O and 200 mg of ZnCl2 which were diluted to 100 mL with distilled water.
Main culture was performed after 2 days of preculture. […]
The culture solutions obtained in Comparative Example 1 and Examples 1 and 2 were centrifuged. […] The concentration of protein in the supernatant was measured by the Bradford method. The protein concentration of the supernatant was calculated on the basis of a calibration curve with bovine γ-globulin as standard protein using Quick Start Protein Assay (BioRad) based on the Bradford method, and the protein concentration was defined as an amount of protein produced. […]
For the culture solutions obtained from Comparative Examples 2 and 3 and Examples 3 to 6, the amount of protein produced was measured in the same manner as in Test 1. […]

N[C@@H]1O[C@H](CO)[C@@H](O)[C@H](O)[C@H]1O [β-D-glucopyranosylamine]
increase of maximum amount of protein produced as compared to Comparative Example 1 (Example 1: 0.5% added to initial culture medium of main culture, maximum on day 3 of culture, 10% powder cellulose medium): ≥ 20% | increase of maximum amount of protein produced as compared to Comparative Example 1 (Example 2: 8% aqueous solution fed 0.6 g/L initial culture medium/hr at 15-63 hr (total 0.2%), maximum on day 4 of culture): ≥ 20% | protein productivity as the amount added in the culture increased (Examples 3 to 6: fed together with glucose (38% glucose/2% or 35% glucose/5% aqueous solution) versus 40% glucose feed (Comparative Examples 2 and 3)): tended to be improved
